In ChEMBL document CHEMBL1149774, “Synthesis of N-(5,7-diamino-3-phenyl-quinoxalin-2-yl)-3,4,5-substituted anilines and N-[4[(5,7-diamino-3-phenylquinoxalin-2-yl)amino]benzoyl]-l-glutamic acid diethyl ester: evaluation of in vitro anti-cancer and anti-folate activities” (Eur J Med Chem, 2008):
Activity calls are given as the source filed them. The calls are words filed in the database; no cut-off is given here.

How the values were obtained:
[1] = tested on: CCRF-CEM; test: Growth inhibition of human CCRF-CEM cells after 48 hrs by SRB staining method; assay type: functional
[2] = molecular target: Thymidylate synthase (Escherichia coli) (UniProt C3SWJ7); test: Inhibition of Escherichia coli thymidylate synthase at 10 uM
Chain of Thymidylate synthase (Escherichia coli) (C3SWJ7 1-264): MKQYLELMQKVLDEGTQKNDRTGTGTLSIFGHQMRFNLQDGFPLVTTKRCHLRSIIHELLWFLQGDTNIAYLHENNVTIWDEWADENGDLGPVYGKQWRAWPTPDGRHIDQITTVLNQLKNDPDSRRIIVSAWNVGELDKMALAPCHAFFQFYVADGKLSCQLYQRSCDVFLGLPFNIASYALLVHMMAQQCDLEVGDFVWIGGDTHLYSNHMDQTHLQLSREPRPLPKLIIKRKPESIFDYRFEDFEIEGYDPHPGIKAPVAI

[3] = molecular target: T1, Thymidylate synthase (Lactobacillus casei, UniProt P00469)
T1 sequence (P00469 whole entry): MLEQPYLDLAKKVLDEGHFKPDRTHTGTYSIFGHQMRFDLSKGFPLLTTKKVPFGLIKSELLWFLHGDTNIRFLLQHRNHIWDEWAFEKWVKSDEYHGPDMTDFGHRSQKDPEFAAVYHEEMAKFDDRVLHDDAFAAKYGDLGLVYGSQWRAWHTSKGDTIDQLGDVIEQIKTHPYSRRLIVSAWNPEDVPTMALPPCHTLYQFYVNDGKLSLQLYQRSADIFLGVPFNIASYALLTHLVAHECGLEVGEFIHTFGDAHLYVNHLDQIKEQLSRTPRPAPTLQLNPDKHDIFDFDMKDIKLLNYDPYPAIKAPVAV
Description: Inhibition of Lactobacillus casei thymidylate synthase

[4] = molecular target: Thymidylate synthase (Escherichia coli, UniProt C3SWJ7)
Chain of Thymidylate synthase (Escherichia coli, UniProt C3SWJ7) (C3SWJ7 whole entry): as the sequence (C3SWJ7 1-264) above

| Structure (SMILES) | Activity [2] | Ki [3] | Ki [4] | GI50 [1] |
| --- | --- | --- | --- | --- |
| CN(Cc1cnc2nc(N)nc(N)c2n1)c1ccc(C(=O)N[C@@H](CCC(=O)O)C(=O)O)cc1 [METHOTREXATE] | – | – | – | 0.0398 µM |
| COc1cc(Nc2nc3cc([N+](=O)[O-])cc([N+](=O)[O-])c3nc2-c2ccccc2)cc(OC)c1OC | inactive | 11 µM | – | – |
| COc1ccc(Nc2nc3cc([N+](=O)[O-])cc([N+](=O)[O-])c3nc2-c2ccccc2)cc1 | inactive | 8 µM | – | – |
| COc1ccc(Nc2nc3cc([N+](=O)[O-])cc([N+](=O)[O-])c3nc2-c2ccccc2)cc1OC | – | 24 µM | 1 µM | – |

The remaining molecules from weak to strong by Ki [3], led by results:

| Activity [2] | Ki [3] | Ki [4] | Structure (SMILES) | GI50 [1] |
| --- | --- | --- | --- | --- |
| – | 36 µM | 3 µM | CCOC(=O)CCC(NC(=O)c1ccc(Nc2nc3cc([N+](=O)[O-])cc([N+](=O)[O-])c3nc2-c2ccccc2)cc1)C(=O)OCC (stereo unspecified) | – |
| inactive | 6 µM | – | COc1cc(Nc2nc3cc([N+](=O)[O-])cc([N+](=O)[O-])c3nc2-c2ccccc2)cc(OC)c1 | – |
